Experimental data published in patent US20050255493A1, “Molecular targeting of the IGF-1 receptor” (priority 2002, published 2005).

What was measured:
[1] = test system: IGF1R mRNA; assay: Oligonucleotide scanning array hybridisation with labelled transcript; format: binding, human; conditions: for Rel hyb intensity: relative to the most strongly hybridising sequence on the array; for Hyb intensity: scanning array probed with labelled IGF1R mRNA; for Hybridisation to IGF1R mRNA on scanning array: 37° C. (and 23° C.)
Description: Scanning arrays complementary to the region of the IGF1R mRNA from position 537-685 were prepared using the standard techniques described in Southern E. M. et al., Nucleic Acids Res., 1994, 22(8): 1368-1373; and Sohail, M. and Southern, E. M. “Using oligonucleotide scanning arrays to find effective antisense reagents”, Methods in Molecular Biology, vol. 170: DNA Arrays: Methods and Protocols, Ed J. B. Rampal, Humana Press Inc., Totowa, N.J.
The scanning arrays comprise sets of oligonucleotides of various lengths. A series of oligonucleotides, complementary to the target mRNA, is made by sequential coupling of nucleotides to a solid surface. The DNA synthesis reagents are applied to a confined area on the surface of the solid support using a mask. The mask is shifted along the surface after each round of coupling, resulting in a series of oligonucleotides each complementary to a region of the target sequence.
• 2. Remove 1 μL for quantitation (see below). • 3. Remove unincorporated label by Sephadex® G25 column chromatography (see Note 11). • 4. Save 1 μL of the purified transcript for quantitation (see below). • 5. Check the integrity of the transcript by denaturing polyacrylamide gel electrophoresis (10). • 6. Add 10 μL of the scintillation fluid to the samples saved in Steps 2 and 4. • 7. Mix by vortexing and count the samples in a scintillation counter for 1 min. • 8. Calculate the percent incorporation: [formula] • 9. Calculate the amount of RNA made: [formula] Hybridisation to Arrays Made on Polypropylene • 1. Place the array in the hybridisation tube, coiling it in a spiral. • 2. Dilute the radiolabelled transcript in an appropriate volume (10-20 mL depending upon the size of the array and the hybridisation tube) of hybridisation buffer. The mix should cover the array along the length of the tube. • 3. Place items 1 and 2 in the oven at desired temperature for 30 min. Also put approximately 100 mL of the hybridisation buffer in the oven: this is to be used to wash the array at the end of hybridisation. • 4. Pour the hybridisation mix into the tube containing the array and hybridise for 3-4 h. • 5. Remove the hybridisation mix. Briefly wash the array with the hybridisation buffer from Step 3, air dry, cover with cling film and expose to a storage phosphor screen for 16-20 h (see Note 12). • 6. Scan the screen on PhosphorImager or STORM and analyse the image using xvseq (see below). Hybridisation to Arrays Made on Glass • 1. Clean the non-array glass plate with acetone and ethanol to ensure it is grease-free and siliconise it by treatment with dimethyl dichlorosilane solution and place it in lidded box. Also place moist paper towel in the box. • 2. Dilute the radiolabelled transcript in an appropriate volume of the hybridisation buffer (for example, for an array of 250 mm×50 mm use 500-750 μL). • 3. Place items 1 and 2 in an incubator at desired temprature for 30 min. Also put approximately 100 mL of the hybridisation buffer in the oven: this is to be used to wash the array at the end of hybridisation. • 4. Using a micropipette, pipette the hybridisation mix in a line evenly along the length of the non-array glass plate, avoiding formation of air bubbles. • 5. Starting at one end, carefully place the scanning array (face down) on top of the hybridisation mix. The mix will spread out and form a thin film between the two plates. Incubate for 3-4 h. • 6. Separate the plates from each other and wash the array plate with hybridisation buffer to remove unbound mix. Drain the plate, air dry, cover with cling film and expose to a storage phosphor screen for 16-20 h. • 7. Scan the screen on PhosphorImager or STORM and analyse the image using xvseq (see below). Alternative Hybridisation Protocol for Glass or Polypropylene • 1. Assemble with clips the array plate (or polypropylene array pasted with PhotoMount™ on a glass plate) and the non-array plate, using rubber tubing as spacers on two sides. • 2. […]

[2] = test system: IGF1R; assay: IGF1R level by immunoblotting in transfected MDA-231 cells; format: cell-based, human; conditions: for IGF1R Protein Level (% control): MDA-231 cells, 48 hr, vs scrambled control
Description: (§1) The human and murine cell lines used in this study were cultured in RPMI 1640 plus 10% FCS at 37° C. in a humidified atmosphere of 5% CO2. The cultures were negative when tested for Mycoplasma infection. Cultures were passaged the day before transfection to achieve 30-50% confluence the following day. Initial transfections of ASOs used 1-2.5 μg/ml Cytofectin (Glen Research, Sterling, Va.), according to the manufacturer's instructions. Latterly Oligofectamine (Life Sciences) has been used for all ASO and RNAi transfections. The method was as described (see manufacturer's instructions and www.dharmacon.com) with minor modifications. For transfection of monolayers seeded in 6 well plates, 5 μl phosphorothioate oligonucleotide or RNA duplex at 100× final concentration were mixed with 2501 serum-free Optimem (Gibco-BRL). In a separate tube 2 μl Oligofectamine was mixed with 68 μl Optimem. After 10 min incubation at room temperature the contents of the two tubes were mixed and incubated for a further 25 min at room temperature. Monolayers were washed with 1-2 ml Optimem. To the cells were added 175 μl Optimem followed by the 325 μl complexes. Volumes were scaled up by factors of 2.22 or 6.05 for transfection in 60 mm or 100 mm dishes respectively. Cultures were incubated at 37° C. for 4 hr, and then 50 μl FCS and 3.5 ml RPMI plus 5% FCS were added to each well. After 48 hr incubation effects on IGF1R and IR expression were determined by immunoblotting. Some transfected cultures were serum-starved overnight, divided into two aliquots and treated with 10 nM Long R3-IGF-I (GroPep, Adelaide) or diluent for 30 min at 37° C. prior to lysis.
(§2) IGF1R expression was assessed by immunoblotting as previously described (Macaulay et al 2001). After washing in ice-cold PBS, cells were lysed in 50 mM Hepes pH 7.5, 100 mM NaCl, 10 mM EDTA, 1% Triton-X-100, 4 mM sodium pyrophosphate, 2 mM sodium orthovanadate, 10 mM sodium fluoride, 1 mM PMSF, 2 μg/ml each leupeptin and aprotinin. Lysates were centrifuged for 15 minutes at 14,000 g, the protein concentration of supernatants was measured using BCA assay reagent (Pierce), and equivalent amounts of protein were separated on 7.5% SDS-PAGE gels and transferred to nitrocellulose. Target protein levels were assessed using antibodies to the β-subunit of the IGF1R or IR (Santa Cruz), phospho-Ser 473 Akt or total Akt (Cell Signalling, New England Biolabs) or β-tubulin (Sigma). Activated IGF1R was detected by immunoprecipitation for phosphotyrosine (P-Tyr-100, Cell Signaling Technology). Primary antibodies were detected with HRP-conjugated secondary antibodies (Dako), and ECL Plus (Amersham Pharmacia).
(§3) The ASOs and RNAi duplexes were transfected into MDA-231 cells (human ER negative breast cancer) using Cytofectin or Oligofectamine, as described above. After 48 hr the cells were lysed, and IGF1R and IR levels were measured by immunoblotting. The intensity of the autoradiographic bands was quantified by densitometry, and IGF1R (or IR) levels were corrected for loading differences. The specific IGF1R or IR results are presented as % IGF1R (or IR) level of that in cells transfected with the same concentration of an appropriate control. This was a scrambled control oligonucleotide for ASOs, and an inverted RNA duplex for RNAi.

[3] = test system: IR; assay: IR level by immunoblotting in transfected MDA-231 cells; format: cell-based, human; conditions: for IR Protein Level (% control): 48 hr, vs scrambled control; for IR downregulation: TSS ASO at 300 nM; for Selectivity for IGF1R mRNA versus IR mRNA: compared with TSS ASO
Description: as §1, §2, §3

[4] = test system: MDA-MB-231 cells; assay: Clonogenic survival and post-irradiation survival (SF2) of transfected MDA-MB-231 cells; format: cell-based, human; conditions: MDA-MB-231, 100 nM
Description: FIG. 7 A) MDA-MB-231 cells transfected with 100 nM RNA duplexes were serum-starved overnight and treated with 50 nM IGF-I for 30 min. […] Results represent mean±sem of colony counts in triplicate dishes. Similar results were obtained in two further clonogenic assays. • C) Clonogenic survival of transfected MDA-MB-231 cells that were unirradiated or irradiated at 2Gy. The fraction surviving 2Gy irradiation (SF2) is shown as mean±sem of three independent assays.
The effect of transfection with 100 nM ASO4 or siRNA duplexes R4 and R5, equivalent to strongly and weakly hybridizing ASOs respectively, on colony forming efficiency and post-irradiation survival was also evaluated. […] This in turn illustrates the utility of hybridisation to the scanning ASO array in the selection of siRNA reagents, since relative hybridisation to the array is found to be predictive of activity in RNA interference and biological efficacy.

| Substance | Rel hyb intensity [1] | Hyb intensity [1] | IGF1R Protein Level (% control) ([2]; 30 nM ASO) | IGF1R Protein Level (% control) ([2]; 300 nM ASO) | Hybridisation to IGF1R mRNA on scanning array [1] | IR Protein Level (% control) ([3]; 30 nM ASO) | IR Protein Level (% control) ([3]; 300 nM ASO) | IR downregulation [3] | Selectivity for IGF1R mRNA versus IR mRNA [3] | Survival after 2Gy irradiation (SF2) ([4]; 2Gy) | Clonogenic survival ([4]; unirradiated) | IGF1R downregulation compared between 21mer duplexes ([2]; MDA-231 cells, 0.5, 5 and 50 nm (FIG. 5)) |
| --- | --- | --- | --- | --- | --- | --- | --- | --- | --- | --- | --- | --- |
| 15mer: 15mer sequence described by Wraight et al. which falls within the region 537-685, gtgcagcagcggtag (DNA GTGCAGCAGCGGTAG; further chemistry not given here) [reference compound] | 0.03 | 1695 | – | – | – | – | – | – | – | – | – | – |
| ASO1 (20mer): phosphorothioate antisense oligonucleotide CGGCTTCTCCTCCATGGTCC, SEQ ID NO:2 (DNA, all phosphorothioate, methylation of C not given here) | – | – | 66 ± 23 % control | 38 ± 6 % control | hybridised strongly | 112 % control | 135 % control | did not cause significant downregulation of IR | greater selectivity for IGF1R mRNA versus IR mRNA | – | – | – |
| ASO2 (20mer): phosphorothioate antisense oligonucleotide TGGTCTTCTCACACATCGGC, SEQ ID NO:7 (DNA, all phosphorothioate, methylation of C not given here) | – | – | 84 ± 11 % control | 47 ± 5 % control | hybridised strongly | – | – | – | – | – | – | – |
| ASO3: phosphorothioate antisense oligonucleotide ATTGTTGATGGTGGTCTTCT, SEQ ID NO:11 (DNA, all phosphorothioate, methylation of C not given here) | >0.13 | >7048 | 105 ± 18 % control | 104 ± 22 % control | hybridises only at 23 °C | – | – | – | – | – | – | – |
| ASO4: phosphorothioate antisense oligonucleotide GCGGTAGTTGTACTCATTGT, SEQ ID NO:13 (DNA, all phosphorothioate, methylation of C not given here) | >0.59 | >33,162 | 73 ± 2 % control | 49 ± 2 % control | hybridised strongly | 97 % control | 92 % control | did not cause significant downregulation of IR | greater selectivity for IGF1R mRNA versus IR mRNA | entirely non-specific | entirely non-specific | – |
| ASO5: phosphorothioate antisense oligonucleotide GTGGTCCAGCAGCGGTAGTT, SEQ ID NO:15 (DNA, all phosphorothioate, methylation of C not given here) | >0.07 | >4150 | – | – | hybridised strongly | – | – | – | – | – | – | – |
| Mut2: R2 duplex with single base pair mutation GCCGAUGUGUGUGAAGACCTT / TTCGGCUACACACACUUCUGG, SEQ ID NO:28 (sense GCCGAUGUGUGUGAAGACCNN; chemistry not fully specified; one strand is listed 3' to 5') | – | – | – | – | – | – | – | – | – | – | – | partially, though not completely, blocked |
